Measurements reported in ChEMBL document CHEMBL5325440, “Design, synthesis, and anti-inflammatory activity characterization of novel brain-permeable HDAC6 inhibitors” (Eur J Med Chem, 2023).
Each block holds one compound with its values, some of them ahead of it.

Legend:
[1] = Drug uptake in mouse brain at 3 mg/kg measured at upto 60 mins by PET imaging based analysis; assay type: ADME, organism-based; settings: in vivo, 1 h
[2] = target: T1, Protein deacetylase HDAC6 (Homo sapiens, UniProt Q9UBN7); test: Inhibition of HDAC6 (unknown origin)
T1 sequence (Q9UBN7 whole entry): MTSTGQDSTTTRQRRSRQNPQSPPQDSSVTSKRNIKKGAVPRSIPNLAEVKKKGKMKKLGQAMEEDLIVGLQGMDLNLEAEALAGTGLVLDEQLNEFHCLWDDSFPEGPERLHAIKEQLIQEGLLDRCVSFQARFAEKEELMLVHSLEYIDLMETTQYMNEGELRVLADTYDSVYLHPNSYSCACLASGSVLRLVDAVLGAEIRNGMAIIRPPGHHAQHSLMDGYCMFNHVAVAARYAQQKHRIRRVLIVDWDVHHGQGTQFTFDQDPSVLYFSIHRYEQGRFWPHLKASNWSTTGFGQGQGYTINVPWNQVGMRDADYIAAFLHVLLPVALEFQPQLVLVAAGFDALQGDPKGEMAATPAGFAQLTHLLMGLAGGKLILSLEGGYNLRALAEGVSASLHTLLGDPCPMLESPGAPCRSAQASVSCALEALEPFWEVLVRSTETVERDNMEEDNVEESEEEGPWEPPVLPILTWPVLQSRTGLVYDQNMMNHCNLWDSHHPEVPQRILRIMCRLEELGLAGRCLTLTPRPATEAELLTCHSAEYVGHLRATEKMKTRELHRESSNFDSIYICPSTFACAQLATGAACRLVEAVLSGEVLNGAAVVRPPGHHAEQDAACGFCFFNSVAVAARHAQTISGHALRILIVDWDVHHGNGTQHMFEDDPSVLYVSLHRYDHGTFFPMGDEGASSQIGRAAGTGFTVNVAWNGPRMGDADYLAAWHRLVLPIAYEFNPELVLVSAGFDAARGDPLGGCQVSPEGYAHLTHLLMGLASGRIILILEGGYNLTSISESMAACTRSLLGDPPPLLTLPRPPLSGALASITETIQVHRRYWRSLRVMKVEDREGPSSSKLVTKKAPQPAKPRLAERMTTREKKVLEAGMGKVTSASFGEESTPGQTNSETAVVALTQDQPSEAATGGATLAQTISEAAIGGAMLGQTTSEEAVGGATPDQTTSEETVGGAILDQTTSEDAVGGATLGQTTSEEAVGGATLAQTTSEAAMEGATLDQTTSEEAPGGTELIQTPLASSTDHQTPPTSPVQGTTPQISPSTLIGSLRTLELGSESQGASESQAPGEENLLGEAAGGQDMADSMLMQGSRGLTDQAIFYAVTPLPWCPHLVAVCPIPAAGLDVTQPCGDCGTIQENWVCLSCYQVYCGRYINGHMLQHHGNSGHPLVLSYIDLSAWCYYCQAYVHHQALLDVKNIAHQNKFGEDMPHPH

Histone deacetylase 1 = Histone deacetylase 1 (Homo sapiens, UniProt Q13547); test: Inhibition of HDAC1 (unknown origin)
[3] = Drug concentration in C57BL/6 mouse brain at 1 mg/kg, ip measured after 0.5 hrs by LC-MS/MS analysis; assay type: ADME, organism-based; settings: read-out: Ct
Histone deacetylase 3 = Histone deacetylase 3 (Homo sapiens, UniProt O15379); test: Inhibition of HDAC3 (unknown origin)
BV-2 = test: Cytotoxicity against mouse BV-2 cells at 500 to 1000 nM incubated overnight in presence of LPS by LDH assay; assay type: toxicity, cell-based; settings: bv-2, 1 µM, dose 500-1000 nM
[4] = Ratio of drug concentration in brain to plasma of C57BL/6 mouse plasma at 1 mg/kg, ip measured after 0.5 hr by LC-MS/MS analysis; assay type: ADME, organism-based; settings: read-out: BPR
Histone deacetylase 9 = Histone deacetylase 9 (Homo sapiens, UniProt Q9UKV0); test: Inhibition of HDAC9 (unknown origin)
[5] = target: T2, Polyamine deacetylase HDAC10 (Homo sapiens, UniProt Q969S8); test: Inhibition of HDAC10 (unknown origin)
T2 sequence (Q969S8 whole entry): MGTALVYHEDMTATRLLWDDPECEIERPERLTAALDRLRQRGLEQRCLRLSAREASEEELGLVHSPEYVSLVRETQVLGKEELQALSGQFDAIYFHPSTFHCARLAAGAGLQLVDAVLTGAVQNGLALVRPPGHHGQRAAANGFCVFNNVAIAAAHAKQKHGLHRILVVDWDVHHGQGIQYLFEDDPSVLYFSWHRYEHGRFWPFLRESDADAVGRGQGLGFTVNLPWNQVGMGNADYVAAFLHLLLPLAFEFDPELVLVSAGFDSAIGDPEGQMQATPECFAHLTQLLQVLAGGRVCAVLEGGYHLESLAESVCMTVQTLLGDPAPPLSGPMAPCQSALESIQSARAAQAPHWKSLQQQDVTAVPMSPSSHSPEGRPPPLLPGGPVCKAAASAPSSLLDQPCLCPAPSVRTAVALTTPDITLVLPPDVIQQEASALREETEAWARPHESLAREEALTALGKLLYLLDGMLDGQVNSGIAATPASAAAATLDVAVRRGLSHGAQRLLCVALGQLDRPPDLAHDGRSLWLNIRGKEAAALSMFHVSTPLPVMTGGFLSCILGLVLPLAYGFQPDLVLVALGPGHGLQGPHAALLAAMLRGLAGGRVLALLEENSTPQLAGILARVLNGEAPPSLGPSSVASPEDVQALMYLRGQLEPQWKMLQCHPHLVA

Histone deacetylase 8 = target: T3, Histone deacetylase 8 (Homo sapiens, UniProt Q9BY41); test: Inhibition of HDAC8 (unknown origin)
T3 sequence (Q9BY41 whole entry): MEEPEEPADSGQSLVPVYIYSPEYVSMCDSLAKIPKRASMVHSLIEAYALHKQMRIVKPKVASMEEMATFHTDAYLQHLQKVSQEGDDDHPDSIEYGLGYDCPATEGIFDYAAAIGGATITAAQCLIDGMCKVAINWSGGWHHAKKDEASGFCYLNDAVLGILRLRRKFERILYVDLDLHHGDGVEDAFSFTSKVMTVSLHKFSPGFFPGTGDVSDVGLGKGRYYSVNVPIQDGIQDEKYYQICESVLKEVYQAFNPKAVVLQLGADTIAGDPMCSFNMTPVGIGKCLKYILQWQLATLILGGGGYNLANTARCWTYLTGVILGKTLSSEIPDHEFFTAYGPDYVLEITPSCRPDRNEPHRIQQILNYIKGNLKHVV

[6] = Ratio of drug concentration in brain to plasma of C57BL/6 mouse plasma at 1 mg/kg, ip measured after 1 hr by LC-MS/MS analysis; assay type: ADME, organism-based; settings: read-out: BPR
[7] = Drug concentration in C57BL/6 mouse plasma at 1 mg/kg, ip measured after 0.5 hrs by LC-MS/MS analysis; assay type: ADME, organism-based
[8] = Drug concentration in C57BL/6 mouse plasma at 1 mg/kg, ip measured after 3 hrs by LC-MS/MS analysis; assay type: ADME, organism-based
[9] = Drug concentration in C57BL/6 mouse brain at 1 mg/kg, ip measured after 3 hrs by LC-MS/MS analysis; assay type: ADME, organism-based; settings: read-out: Ct
Histone deacetylase 2 = Histone deacetylase 2 (Homo sapiens, UniProt Q92769); test: Inhibition of HDAC2 (unknown origin)
[10] = Drug concentration in C57BL/6 mouse brain at 1 mg/kg, ip measured after 1 hr by LC-MS/MS analysis; assay type: ADME, organism-based; settings: read-out: Ct
[11] = Ratio of drug concentration in brain to plasma of C57BL/6 mouse plasma at 1 mg/kg, ip measured after 3 hrs by LC-MS/MS analysis; assay type: ADME, organism-based; settings: read-out: BPR
Histone deacetylase 5 = Histone deacetylase 5 (Homo sapiens, UniProt Q9UQL6); test: Inhibition of HDAC5 (unknown origin)
Histone deacetylase 4 = Histone deacetylase 4 (Homo sapiens, UniProt P56524); test: Inhibition of HDAC4 (unknown origin)
Histone deacetylase 11 = target: T4, Histone deacetylase 11 (Homo sapiens, UniProt Q96DB2); test: Inhibition of HDAC11 (unknown origin)
T4 sequence (Q96DB2 whole entry): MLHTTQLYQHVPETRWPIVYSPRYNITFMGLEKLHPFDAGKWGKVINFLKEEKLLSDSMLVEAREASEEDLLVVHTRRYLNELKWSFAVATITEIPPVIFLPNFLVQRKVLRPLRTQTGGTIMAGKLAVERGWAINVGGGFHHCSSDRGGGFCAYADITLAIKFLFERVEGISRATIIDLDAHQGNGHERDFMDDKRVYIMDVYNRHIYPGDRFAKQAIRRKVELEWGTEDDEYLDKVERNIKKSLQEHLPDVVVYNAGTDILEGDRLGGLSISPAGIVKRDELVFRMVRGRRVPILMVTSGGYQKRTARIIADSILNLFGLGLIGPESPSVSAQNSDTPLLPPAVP

[12] = Drug concentration in C57BL/6 mouse plasma at 1 mg/kg, ip measured after 1 hr by LC-MS/MS analysis; assay type: ADME, organism-based
[13] = Drug accumulation in mouse liver measured after 60 mins post injection; assay type: ADME, tissue-based; settings: in vivo, 1 h
[14] = Drug accumulation in mouse heart measured after 5 mins post injection; assay type: ADME, tissue-based; settings: in vivo
[15] = Drug accumulation in mouse lung measured after 5 mins post injection; assay type: ADME, tissue-based; settings: in vivo
[16] = Drug accumulation in mouse kidney measured after 60 mins post injection; assay type: ADME, tissue-based; settings: in vivo, 1 h
[17] = Drug accumulation in mouse spleen measured after 5 mins post injection; assay type: ADME, tissue-based; settings: in vivo
[18] = Drug accumulation in mouse kidney measured after 5 mins post injection; assay type: ADME, tissue-based; settings: in vivo
[19] = Drug accumulation in mouse liver measured after 5 mins post injection; assay type: ADME, tissue-based; settings: in vivo

Chain of Histone deacetylase 1 (Q13547 whole entry): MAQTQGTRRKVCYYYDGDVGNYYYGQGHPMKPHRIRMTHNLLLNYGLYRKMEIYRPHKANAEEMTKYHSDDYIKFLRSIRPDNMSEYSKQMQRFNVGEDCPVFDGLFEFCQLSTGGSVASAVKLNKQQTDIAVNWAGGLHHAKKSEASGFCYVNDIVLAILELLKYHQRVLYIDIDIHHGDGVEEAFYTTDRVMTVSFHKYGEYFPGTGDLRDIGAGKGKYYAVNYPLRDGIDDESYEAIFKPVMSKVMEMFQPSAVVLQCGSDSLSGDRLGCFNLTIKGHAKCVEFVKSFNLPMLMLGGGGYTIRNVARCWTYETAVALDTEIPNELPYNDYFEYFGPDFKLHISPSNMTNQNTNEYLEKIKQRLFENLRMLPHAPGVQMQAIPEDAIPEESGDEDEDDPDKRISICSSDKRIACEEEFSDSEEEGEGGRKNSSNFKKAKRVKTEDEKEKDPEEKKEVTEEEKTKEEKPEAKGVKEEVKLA
Chain of Histone deacetylase 9 (Q9UKV0 whole entry): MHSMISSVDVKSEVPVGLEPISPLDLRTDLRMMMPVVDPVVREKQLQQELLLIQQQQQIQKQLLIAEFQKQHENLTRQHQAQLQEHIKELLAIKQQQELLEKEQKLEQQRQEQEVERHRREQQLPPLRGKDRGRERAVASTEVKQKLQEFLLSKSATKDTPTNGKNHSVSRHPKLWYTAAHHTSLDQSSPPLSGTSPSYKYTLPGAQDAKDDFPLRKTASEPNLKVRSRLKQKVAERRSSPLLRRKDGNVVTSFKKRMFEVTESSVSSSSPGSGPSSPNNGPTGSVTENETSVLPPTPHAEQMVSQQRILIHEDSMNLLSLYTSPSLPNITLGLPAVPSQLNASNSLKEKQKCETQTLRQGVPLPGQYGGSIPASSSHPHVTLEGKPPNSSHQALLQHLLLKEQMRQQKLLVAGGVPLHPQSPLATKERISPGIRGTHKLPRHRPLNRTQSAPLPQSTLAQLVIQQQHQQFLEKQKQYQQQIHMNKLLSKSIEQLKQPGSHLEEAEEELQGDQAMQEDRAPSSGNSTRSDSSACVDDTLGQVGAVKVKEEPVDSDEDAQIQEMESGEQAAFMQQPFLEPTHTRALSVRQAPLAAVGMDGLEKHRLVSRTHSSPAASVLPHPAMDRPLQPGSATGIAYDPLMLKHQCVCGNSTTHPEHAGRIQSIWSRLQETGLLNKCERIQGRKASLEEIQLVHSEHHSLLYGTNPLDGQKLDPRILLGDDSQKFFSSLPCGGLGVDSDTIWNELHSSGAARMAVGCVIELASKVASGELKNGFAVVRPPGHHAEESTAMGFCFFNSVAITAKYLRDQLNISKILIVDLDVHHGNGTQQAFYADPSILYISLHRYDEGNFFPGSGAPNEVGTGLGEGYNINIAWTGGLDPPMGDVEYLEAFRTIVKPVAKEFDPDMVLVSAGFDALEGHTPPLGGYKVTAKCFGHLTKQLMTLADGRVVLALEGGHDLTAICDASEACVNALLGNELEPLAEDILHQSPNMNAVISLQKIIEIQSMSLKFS
Chain of Histone deacetylase 4 (P56524 whole entry): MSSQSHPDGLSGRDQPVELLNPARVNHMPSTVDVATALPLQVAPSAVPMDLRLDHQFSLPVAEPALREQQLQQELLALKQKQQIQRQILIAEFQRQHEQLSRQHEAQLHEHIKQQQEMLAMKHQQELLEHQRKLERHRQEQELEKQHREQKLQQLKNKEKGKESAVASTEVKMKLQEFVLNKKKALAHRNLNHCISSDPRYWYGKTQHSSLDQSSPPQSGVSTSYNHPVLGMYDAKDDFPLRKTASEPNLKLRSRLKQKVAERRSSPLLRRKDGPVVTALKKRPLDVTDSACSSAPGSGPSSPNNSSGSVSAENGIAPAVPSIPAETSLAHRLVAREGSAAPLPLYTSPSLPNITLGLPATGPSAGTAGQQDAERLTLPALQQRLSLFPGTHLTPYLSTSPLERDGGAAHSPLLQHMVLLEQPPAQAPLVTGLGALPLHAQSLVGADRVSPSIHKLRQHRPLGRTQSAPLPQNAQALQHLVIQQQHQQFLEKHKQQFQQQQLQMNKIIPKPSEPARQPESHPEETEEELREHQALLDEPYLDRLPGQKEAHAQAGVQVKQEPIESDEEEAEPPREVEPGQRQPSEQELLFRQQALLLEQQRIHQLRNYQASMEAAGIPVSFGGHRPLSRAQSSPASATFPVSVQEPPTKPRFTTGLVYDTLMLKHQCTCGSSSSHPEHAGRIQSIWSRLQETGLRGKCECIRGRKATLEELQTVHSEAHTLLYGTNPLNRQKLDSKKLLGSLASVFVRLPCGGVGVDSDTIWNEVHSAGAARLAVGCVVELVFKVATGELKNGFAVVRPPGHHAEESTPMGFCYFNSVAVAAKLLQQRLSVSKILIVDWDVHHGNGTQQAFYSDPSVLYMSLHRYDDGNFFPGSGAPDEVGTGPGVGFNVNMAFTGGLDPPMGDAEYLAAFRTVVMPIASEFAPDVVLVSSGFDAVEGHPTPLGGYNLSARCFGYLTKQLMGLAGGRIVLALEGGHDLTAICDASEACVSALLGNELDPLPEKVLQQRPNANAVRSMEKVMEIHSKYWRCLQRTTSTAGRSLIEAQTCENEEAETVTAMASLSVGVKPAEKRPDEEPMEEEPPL
Chain of Histone deacetylase 2 (Q92769 whole entry): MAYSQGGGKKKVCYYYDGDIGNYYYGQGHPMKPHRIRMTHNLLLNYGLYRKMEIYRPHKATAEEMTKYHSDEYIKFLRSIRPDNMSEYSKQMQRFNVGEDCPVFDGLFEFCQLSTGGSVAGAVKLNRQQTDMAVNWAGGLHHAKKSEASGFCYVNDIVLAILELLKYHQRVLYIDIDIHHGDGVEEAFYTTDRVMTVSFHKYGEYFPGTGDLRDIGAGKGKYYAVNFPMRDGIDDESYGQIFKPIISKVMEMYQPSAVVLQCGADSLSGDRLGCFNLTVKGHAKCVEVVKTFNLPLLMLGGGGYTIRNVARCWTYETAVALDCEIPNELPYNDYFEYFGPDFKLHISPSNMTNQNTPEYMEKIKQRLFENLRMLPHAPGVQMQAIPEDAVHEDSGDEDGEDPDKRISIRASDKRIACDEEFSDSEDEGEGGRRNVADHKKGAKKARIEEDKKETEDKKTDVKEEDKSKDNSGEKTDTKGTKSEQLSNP
Chain of Histone deacetylase 3 (O15379 whole entry): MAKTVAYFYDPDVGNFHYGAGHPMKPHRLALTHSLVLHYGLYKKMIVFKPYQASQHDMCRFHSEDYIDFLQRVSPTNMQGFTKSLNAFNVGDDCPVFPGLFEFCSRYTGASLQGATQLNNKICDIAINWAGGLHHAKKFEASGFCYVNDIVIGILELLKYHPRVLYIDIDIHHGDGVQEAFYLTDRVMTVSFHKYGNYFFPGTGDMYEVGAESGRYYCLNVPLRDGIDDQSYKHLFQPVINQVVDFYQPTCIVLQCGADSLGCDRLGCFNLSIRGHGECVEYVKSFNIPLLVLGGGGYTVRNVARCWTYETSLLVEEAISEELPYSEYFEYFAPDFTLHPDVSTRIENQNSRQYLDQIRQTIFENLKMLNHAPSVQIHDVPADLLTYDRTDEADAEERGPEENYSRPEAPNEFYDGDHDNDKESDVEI
Chain of Histone deacetylase 5 (Q9UQL6 whole entry): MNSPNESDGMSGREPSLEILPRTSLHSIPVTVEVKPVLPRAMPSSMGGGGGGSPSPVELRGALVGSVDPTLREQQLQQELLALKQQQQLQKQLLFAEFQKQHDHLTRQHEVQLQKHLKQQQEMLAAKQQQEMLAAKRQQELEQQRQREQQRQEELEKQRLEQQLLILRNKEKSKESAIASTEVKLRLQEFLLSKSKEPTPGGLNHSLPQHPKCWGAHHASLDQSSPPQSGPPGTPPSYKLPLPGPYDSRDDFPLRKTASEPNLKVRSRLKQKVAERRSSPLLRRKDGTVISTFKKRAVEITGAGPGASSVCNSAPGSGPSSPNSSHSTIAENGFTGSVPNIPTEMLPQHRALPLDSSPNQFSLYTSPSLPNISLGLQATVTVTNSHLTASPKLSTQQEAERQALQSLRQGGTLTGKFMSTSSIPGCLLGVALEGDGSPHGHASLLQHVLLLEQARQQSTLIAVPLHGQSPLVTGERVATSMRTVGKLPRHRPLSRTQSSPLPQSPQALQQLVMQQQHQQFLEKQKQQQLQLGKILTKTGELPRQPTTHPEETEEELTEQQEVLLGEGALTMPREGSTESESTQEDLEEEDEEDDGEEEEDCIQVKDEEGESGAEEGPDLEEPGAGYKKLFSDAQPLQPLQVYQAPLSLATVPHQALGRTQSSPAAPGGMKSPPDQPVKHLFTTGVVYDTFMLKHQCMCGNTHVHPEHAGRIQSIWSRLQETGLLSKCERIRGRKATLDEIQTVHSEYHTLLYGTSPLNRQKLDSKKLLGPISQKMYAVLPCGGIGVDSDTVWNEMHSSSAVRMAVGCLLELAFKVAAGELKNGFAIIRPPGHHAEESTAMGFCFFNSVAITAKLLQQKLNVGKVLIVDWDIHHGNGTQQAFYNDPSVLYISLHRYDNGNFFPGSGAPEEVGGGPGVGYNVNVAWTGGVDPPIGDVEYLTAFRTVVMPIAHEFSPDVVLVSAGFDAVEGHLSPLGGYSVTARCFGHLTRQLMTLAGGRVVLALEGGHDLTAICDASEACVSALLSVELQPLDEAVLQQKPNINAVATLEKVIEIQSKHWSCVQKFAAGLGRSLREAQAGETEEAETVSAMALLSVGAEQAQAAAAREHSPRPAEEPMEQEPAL

- IC50 [2]: 0.0861 µM
- IC50 (Histone deacetylase 1): 4.71 µM
Compound: O=C(NO)c1ccc(CNC2CCCc3cccnc32)cc1 (stereo unspecified)

- IC50 [2]: 0.063 µM
- IC50 (Histone deacetylase 1): 5.05 µM
Compound: O=C(NO)c1ccc(CNC2CCCc3cccnc32)c(F)c1 (stereo unspecified)

- Drug uptake [13]: Active
- Drug uptake [14]: > 10 %ID/cc
- Drug uptake [15]: Active
- Drug uptake [16]: Active
- Drug uptake [17]: Active
- Drug uptake [18]: > 10 %ID/cc
- Drug uptake [19]: > 10 %ID/cc
- SUV [1]: 0.6
Compound: O=C(NO)c1ccc(CN2CCCc3cccnc32)c([18F])c1

Further lines, the compound ahead of its results:

Compound: O=C(NO)c1ccc(CNc2cccc3ccc([18F])nc23)cc1
- SUV [1]: 0.35

Compound: O=C(NO)c1ccc(CN2CCCc3cccnc32)c(F)c1
- concentration at 0.5 h [3]: 13.2 ng/mL
- IC50 (Histone deacetylase 3): 0.568 µM
- Activity (BV-2): Non-Toxic
- Kp at 0.5 h [4]: 2.1
- IC50 (Histone deacetylase 9): 0.701 µM
- IC50 [5]: 0.269 µM
- IC50 (Histone deacetylase 8): 0.597 µM
- Kp at 1 h [6]: 1.5
- concentration at 0.5 h [7]: 6.21 ng/mL
- concentration at 3 h [8]: 0.82 ng/mL
- concentration at 3 h [9]: 1.07 ng/mL
- IC50 (Histone deacetylase 2): > 10 µM
- concentration at 1 h [10]: 6.48 ng/mL
- Kp at 3 h [11]: 1.3
- IC50 (Histone deacetylase 5): 1.85 µM
- IC50 (Histone deacetylase 4): 0.578 µM
- IC50 (Histone deacetylase 11): 8.61 µM
- concentration at 1 h [12]: 4.32 ng/mL
